Drawing on US20100179093A1, “Neoropeptide-2-Receptor (Y-2R) Agonists” (priority 2008, published 2010), this text covers NPY release, EC50 and Emax for three compounds.

One assay concerns hypothalamic slices. The conditions noted are these: hypothalamic slices in vitro; cited from earlier work.
The next assay deals with T1, Y1R (Homo sapiens, UniProt P25929).
T1 sequence (P25929 1-384): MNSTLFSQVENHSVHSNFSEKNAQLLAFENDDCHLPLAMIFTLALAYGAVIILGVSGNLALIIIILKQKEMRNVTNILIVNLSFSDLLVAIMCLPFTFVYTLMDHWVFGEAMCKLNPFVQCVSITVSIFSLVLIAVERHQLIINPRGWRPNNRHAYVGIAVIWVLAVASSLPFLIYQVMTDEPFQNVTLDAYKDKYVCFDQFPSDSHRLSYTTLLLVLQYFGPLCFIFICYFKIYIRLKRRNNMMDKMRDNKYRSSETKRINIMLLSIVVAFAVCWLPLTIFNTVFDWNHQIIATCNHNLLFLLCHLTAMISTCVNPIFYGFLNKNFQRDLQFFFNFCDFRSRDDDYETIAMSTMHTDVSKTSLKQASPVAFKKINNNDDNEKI
The assay is described as follows: CaFlux Assay (FLIPR), Y1R. It is filed as cell-based.

For a further assay, the target named is Y4R (Homo sapiens, UniProt P50391). Kind of assay: CaFlux Assay (FLIPR), Y4R. Format: cell-based.
Y4R, sequence (P50391 whole entry): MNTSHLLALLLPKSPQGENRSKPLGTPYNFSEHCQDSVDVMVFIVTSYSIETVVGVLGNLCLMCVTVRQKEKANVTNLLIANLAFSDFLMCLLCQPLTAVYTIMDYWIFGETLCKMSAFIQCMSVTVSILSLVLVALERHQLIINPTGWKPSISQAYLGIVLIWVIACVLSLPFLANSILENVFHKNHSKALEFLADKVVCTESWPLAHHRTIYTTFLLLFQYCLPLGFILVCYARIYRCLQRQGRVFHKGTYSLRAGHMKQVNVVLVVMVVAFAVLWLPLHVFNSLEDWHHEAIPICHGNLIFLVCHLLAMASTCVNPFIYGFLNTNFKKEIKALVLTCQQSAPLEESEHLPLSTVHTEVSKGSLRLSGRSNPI
The next assay addresses T2, Y5R (Homo sapiens, UniProt Q15761).
T2 sequence (Q15761 1-445): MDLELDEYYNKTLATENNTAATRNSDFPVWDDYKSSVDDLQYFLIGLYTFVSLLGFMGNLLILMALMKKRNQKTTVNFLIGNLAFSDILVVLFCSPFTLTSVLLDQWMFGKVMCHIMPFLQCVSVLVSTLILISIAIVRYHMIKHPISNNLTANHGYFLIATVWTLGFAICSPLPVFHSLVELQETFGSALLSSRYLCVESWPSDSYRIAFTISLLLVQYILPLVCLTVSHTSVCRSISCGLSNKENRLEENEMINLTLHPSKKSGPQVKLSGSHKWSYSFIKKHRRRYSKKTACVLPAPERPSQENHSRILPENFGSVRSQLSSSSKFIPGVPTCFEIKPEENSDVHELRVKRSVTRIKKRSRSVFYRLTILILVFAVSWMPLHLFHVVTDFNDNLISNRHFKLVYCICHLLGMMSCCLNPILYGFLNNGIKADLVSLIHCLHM
Kind of assay: CaFlux Assay (FLIPR), Y5R.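 As to Emax: percent of the maximal response of the positive control agonist.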 Format: cell-based. Conditions: for Emax: read-out: Y5R FLIPR, percentage in parentheses under the EC50.

Assay [1] addresses T3, hNPY2R (Homo sapiens, UniProt P49146).
T3 sequence (P49146 1-381): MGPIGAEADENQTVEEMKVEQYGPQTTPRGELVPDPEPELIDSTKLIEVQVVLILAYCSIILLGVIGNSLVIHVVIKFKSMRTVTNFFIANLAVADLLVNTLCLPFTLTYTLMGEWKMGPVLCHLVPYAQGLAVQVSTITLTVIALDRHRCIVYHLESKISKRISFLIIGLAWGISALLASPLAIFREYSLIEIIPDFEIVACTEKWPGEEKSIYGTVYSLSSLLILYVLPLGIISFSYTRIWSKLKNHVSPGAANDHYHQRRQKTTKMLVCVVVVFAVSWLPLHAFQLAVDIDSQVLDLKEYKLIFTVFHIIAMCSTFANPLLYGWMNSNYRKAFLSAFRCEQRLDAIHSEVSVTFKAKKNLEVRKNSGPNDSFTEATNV
The assay is described as follows: cAMP Agonist Assay, HEK293/hNPY2R cells. Format: cell-based. Details: expressed in transfected cells; host or cells: HEK293/hNPY2R (G418 selection).
Description: On the first day, medium was discarded, and the monolayer cells were washed with 10 mL PBS per flask (T225). […] The flask was gently tapped and the cell suspension was pooled. Each flask was rinsed with 10 mL plating medium and centrifuged at 1000 rpm for 5 min. The suspension was pooled and counted. The suspension was resuspended in plating medium at a density of 2.0×10^5 cells/mL for HEK293/hNPY2R. 50 microliters of cells (HEK293/hNPY2R-10,000 cells/well) were transferred into the 384-well plate using Multi-drop dispenser. The plates were incubated at 37° C. overnight. […] The media and reagents were allowed to come to room temperature. Before the dilutions were prepared, the stock solution of stimulating compound in dimethyl sulphoxide (DMSO, Sigma, cat #D2650) was allowed to warm up to 32 C for 5-10 min. […] The cell medium was tapped off with a gentle inversion of the cell plate on a paper towel. 50 μL of stimulation medium was placed per well (each concentration done in four replicates). The plates were incubated at room temperature for 30 min, and the cells were checked under a microscope for toxicity. After 30 minutes of treatment, the stimulation media was discarded and 50 mL/well of Assay Lysis Buffer (provided in the Tropix kit) was added. The plates were incubated for 45 min@37° C. 20 μL of the lysate was transferred from stimulation plates into the pre-coated antibody plates (384-well) from the Tropix kit. 10 μL of AP conjugate and 20 μL of anti-cAMP antibody was added. The plates were incubated at room temperature while shaking for 1 hour. The plates were then washed 5 times with Wash Buffer, 70 μL per well for each wash. The plates were tapped to dry. 30 μL/well of CSPD/Saphire-II RTU substrate/enhancer solution was added and incubated for 45 min @ RT (shake). Signal for 1 sec/well in a Luminometer.

The target in assay [2] is T3, hNPY2R. The assay is described as follows: CaFlux Assay (FLIPR), Y2R. Format: cell-based. Set-up: expressed in transfected cells; host or cells: HEK-293 stably expressing G protein chimera Gaqi9.
Description: Hek-293 cells were stably transfected with the G protein chimera Gaqi9 and the hygromycin-B resistance gene were further transfected with the human NPY2 receptor and G418 antibiotic selection. Following selection in both hygromycin-B and G418, individual clones were assayed for their response to PYY. The transfected cells were cultured in DMEM medium supplemented with 10% fetal bovine serum, 50 μg/mL hygromycin-B 2 mM glutamine, 100 U/mL penicillin, 100 μg/mL streptomycin and 250 μg/mL G418. Cells are harvested with trypsin-EDTA and counted using ViaCount reagent. The cell suspension volume is adjusted to 4.8×10^5 cells/mL with complete growth media. Aliquots of 25 μL are dispensed into 384 well Poly-D Lysine coated black/clear microplates (Falcon) and the microplates were placed in a 37° C. CO2 incubator overnight. Loading Buffer (Calcium-3 Assay Kit, Molecular Devices) was prepared by dissolving the contents of one vial (Express Kit) into 1000 mL Hank's Balanced Salt Solution containing 20 mM HEPES and 5 mM probenecid. Aliquots of 25 μL of diluted dye were dispensed into the cell plates and the plates are then incubated for 1 hour at 37° C. During the incubation, test compounds were prepared at 3.5× the desired concentration in HBSS (20 mM HEPES)/0.05% BSA/1% DMSO and transferred to a 384 well plate for use on FLIPR. After incubation, both the cell and compound plates were brought to the FLIPR and 20 μL of the diluted compounds were transferred to the cell plates by the FLIPR. During the assay, fluorescence readings were taken simultaneously from all 384 wells of the cell plate every 1.5 seconds. Five readings were taken to establish a stable baseline, and then 20 μL of sample was rapidly (30 μL/sec) and simultaneously added to each well of the cell plate. The fluorescence was continuously monitored before, during and after sample addition for a total elapsed time of 100 seconds. Responses (increase in peak fluorescence) in each well following addition were determined. The initial fluorescence reading from each well, prior to ligand stimulation, was used as a zero baseline value for the data from that well. The responses are expressed as % of maximal response of the positive control.

Turning to `N=C(N)NCCC[C@H](NC(=O)CC1(CC(=O)N2CCN(C3c4ccccc4NC(=O)c4ccccc43)CC2)CCCC1)C(=O)NCCn1c(=O)n(-c2ccccc2)n(-c2ccccc2)c1=O` (stereo partly shown) [BIIE0246], the NPY release entry in the assay on hypothalamic slices is given as “increases NPY release”.
What is called EC50 is the concentration that produces a half-maximal response. Low readings indicate an effect from little substance, high ones a need for much substance. Regarding `CCCCCCCCCCCCCCCC(=O)N[C@H](C(=O)N[C@H](C(=O)NCCCC[C@H](NC(=O)[C@@H](N)[C@@H](C)CC)C(=O)N1CCN(c2ccc3ncn(CC(=O)N[C@@H](CCCNC(=N)N)C(=O)N[C@@H](Cc4c[nH]cn4)C(=O)N[C@@H](Cc4ccc(O)cc4)C(=O)N[C@@H](CC(C)C)C(=O)N[C@@H](CC(N)=O)C(=O)N[C@@H](Cc4c[nH]c5ccccc45)C(=O)N[C@H](C(=O)N[C@H](C(=O)N[C@@H](CCCNC(=N)N)C(=O)N[C@@H](CCC(N)=O)C(=O)N(C)[C@@H](CCCNC(=N)N)C(=O)N[C@@H](Cc4ccc(O)cc4)C(N)=O)[C@@H](C)O)C(C)C)c(=O)c3c2)CC1)[C@@H](C)O)[C@@H](C)O` [Example 42], the concentration for a half-maximal effect (EC50) is greater than 5000 nM at Y1R; greater than 5000 nM at Y4R; 193 nM at Y5R; 0.14 nM at hNPY2R [1]; 0.018 nM on hNPY2R [2]. Moreover, the Emax at Y5R was found to be 46%.
As to `CCCCCCCCCCCCCCCCCCCC(=O)N[C@H](C(=O)N[C@H](C(=O)NCCCC[C@H](NC(=O)[C@@H](N)[C@@H](C)CC)C(=O)N1CCN(c2ccc3ncn(CC(=O)N[C@@H](CCCNC(=N)N)C(=O)N[C@@H](Cc4c[nH]cn4)C(=O)N[C@@H](Cc4ccc(O)cc4)C(=O)N[C@@H](CC(C)C)C(=O)N[C@@H](CC(N)=O)C(=O)N[C@@H](Cc4c[nH]c5ccccc45)C(=O)N[C@H](C(=O)N[C@H](C(=O)N[C@@H](CCCNC(=N)N)C(=O)N[C@@H](CCC(N)=O)C(=O)N(C)[C@@H](CCCNC(=N)N)C(=O)N[C@@H](Cc4ccc(O)cc4)C(N)=O)[C@@H](C)O)C(C)C)c(=O)c3c2)CC1)[C@@H](C)O)[C@@H](C)O` [Example 43], the EC50 on Y1R is greater than 5000 nM; on Y4R, greater than 5000 nM; on Y5R, 243 nM; at hNPY2R [1] it was 0.26 nM; on hNPY2R [2], 0.074 nM. For the same compound, on Y5R, the Emax was determined as 23%.
